# Source: patent US7973218B2, “Methods and compositions for controlling weeds” (Pioneer Hi-Bred International, Inc., priority 2005, dated 2011)
# Where two headings read alike, the source gives them in different places.
# What was measured:
# [1] = tested on: Parent elite stiff stalk inbred corn; experiment: Preemergence herbicide application to potted corn (fresh weight, visual injury); format: in vivo; conditions: for Fresh Weight: fresh shoots weighed 4 weeks after treatment, untreated 36.7 g; for Crop visual injury at 200 g/ha: Zea mays, pre-emergence, 672 h, read-out: % Visual Injury
# [2] = tested on: Heterozygous GAT-HRA corn; experiment: as above; format: in vivo; conditions: for Fresh Weight: fresh shoots weighed 4 weeks after treatment, untreated 47.0 g; for Crop visual injury at 200 g/ha: Zea mays, pre-emergence, 672 h, read-out: % Visual Injury
# [3] = tested on: Parent elite stiff stalk inbred corn; experiment: Postemergence herbicide application to potted corn (fresh weight, visual injury); format: in vivo; conditions: for % Visual Injury / % visual injury to corn at 200 g/ha: 0% no injury, 100% plant death; for Fresh Weight: weighed 2 weeks after treatment, untreated 76.4 g
# [4] = tested on: Heterozygous GAT-HRA corn; experiment: as above; format: in vivo; conditions: for % Visual Injury / Visual crop injury (%) at 200 g/ha: 0% no injury, 100% plant death; for Fresh Weight: weighed 2 weeks after treatment, untreated 98.8 g
# GAT-HRA maize = experiment: Postemergence herbicide spray of maize at V2 stage, injury evaluated 10-14 days after; format: in vivo; conditions: 200 g ai/ha (metsulfuron-methyl 35 g ai/ha)
# Description: GAT-HRA maize plants were evaluated for tolerance to glyphosate and other herbicides. One protocol used in this evaluation was as follows. At the V2 stage (Ritchie and Hanway (1982), “How a corn plant develops” Spec. Rep. 48. (Coop. Ext. Ser., Iowa State Univ., Ames, Iowa)), plant heights were measured and herbicides were applied by spray application. Ten to fourteen days after the spray application, the transgenic plants were evaluated for injury symptoms and measured for plant height again in order to determine plant growth rates.
# Plants were then evaluated at various times after treatment, such as 10 or 14 days after treatment. […] Leaf samples were taken from GAT-HRA plants and used in quantitative PCR analysis and other analyses to determine the number and arrangement of copies of the GAT and HRA polynucleotides that had been integrated into the plant genome.
# Other protocols for evaluation included treatment with imidazolinone herbicides, such as the commercial herbicide Lightning® (a combination of imazapyr and imazethapyr), which was applied to GAT-HRA maize at the V2 leaf stage at four times the field label rate (250 g ai/ha). […] Another protocol for evaluation included treatment with imidazolinone herbicides as well as sulfonylurea and glyphosate herbicides. In these tests, GAT-HRA maize was treated with various combinations of Lightning® (imazapyr and imazethapyr), Basis® (rimsulfuron and thifensulfuron-methyl) and WeatherMAX® (glyphosate potassium salt). These herbicides were applied at the V2 stage as follows: Lightning® at twice the field label rate (1.8 oz ai/ac (133 ml ai/ha)), Basis® at twice the field label rate (0.5 oz ai/ac (36.9 ml ai/ha)) and WeatherMax® at four times the field label rate (43 oz ai/ac). Fourteen days after the treatment application, the plants were evaluated. […] “Field label rate” refers to the application rate specified on the product label. Where the application rate for a particular situation is a range of rates, as used herein, the term “field label rate” indicates the upper end of that range. […]
# control maize = experiment: as above; format: in vivo; conditions: 200 g ai/ha (metsulfuron-methyl 35 g ai/ha)
# [5] = tested on: non-glyphosate resistant ryegrass; experiment: Control of ryegrass by glyphosate, metsulfuron-methyl and two additives; format: in vivo; conditions: metsulfuron-methyl (BRUSH-OFF) alone
# Description: The example was conducted on non-glyphosate resistant ryegrass. As provided in Table 23, all treatments that included glyphosate [180 g a.i. L ha^−1 (0.5 L glyphosate (SCAT®))] plus metsulfuron-methyl (BRUSH-OFFS®) (5 and 10 g ha^−1) gave 100% control of the ryegrass.
# [6] = tested on: Soybeans comprising the lead GAT7 event and also having HRA; experiment: Greenhouse test confirming the field trial (Example 6B); format: in vivo, soybean; conditions: GAT/HRA Soybeans
# Source text: Example 6B provides greenhouse data that confirms the field trial data provided above in Example 6A. Soybeans comprising the lead GAT7 event and also having HRA were used in the studies.
# [7] = tested on: Hairy Fleabane (Conyza bonariensis), glyphosate sensitive biotype; experiment: Control of hairy fleabane by glyphosate, metsulfuron-methyl and two additives; format: in vivo; conditions: 10-15 leaf stage, 200 L ha^−1
# Description: This example included the same treatments as used in Example 11, except the treatments were carried out on a glyphosate sensitive biotype of Kleinskraalhans (Conyza bonariensis).
# [8] = preemergence, 200 g/ha, mean of four replications
# [9] = 200 g/ha, mean of four replications
# [10] = preemergence, 200 g/ha, 0% no injury, 100% plant death, mean of four replications
# [11] = Zea mays, post-emergence, 200 g/ha, mean of four replications
# [12] = Zea mays, post-emergence, 1870 g/ha
compound,measurement,setting,value
Imazamethabenz-methyl,Fresh Weight,[1]; [8],36.2 g
same,Fresh Weight,[2]; [8],48.5 g
same,% Visual Injury,[3]; [9],11%
same,Fresh Weight,[3]; [9],66.9 g
same,% Visual Injury,[4]; [9],16%
same,Fresh Weight,[4]; [9],95.0 g
"COC(=O)c1ccccc1S(=O)(=O)NC(=O)Nc1nc(C)cc(C)n1 [Sulfometuron-methyl, methyl 2-[[[[(4,6-dimethyl-2-pyrimidinyl)amino]carbonyl]amino]sulfonyl]-benzoate]",Fresh Weight,[3]; [9],2.0 g
"COC(=O)c1ccccc1S(=O)(=O)NC(=O)Nc1nc(C)nc(OC)n1 [Metsulfuron-methyl, methyl 2-[[[[(4-methoxy-6-methyl-1,3,5-triazin-2-yl)amino]carbonyl]amino]sulfonyl]benzoate]",damage from the treatment,GAT-HRA maize,no significant damage
same,damage from the treatment,control maize,severely damaged or killed
same,effect on its own,[5],did nothing accept stunt the ryegrass plants slightly
CC(C)C1(C)N=C(c2ncccc2C(=O)O)NC1=O (centres unmarked) [Imazapyr],damage from the treatment,GAT-HRA maize,no significant damage
same,damage from the treatment,control maize,severely damaged or killed
"COc1nn(C(=O)NS(=O)(=O)c2ccccc2OC(F)(F)F)c(=O)n1C [Flucarbazone Na^+, 4,5-dihydro-3-methoxy-4-methyl-5-oxo-N-[[2-(trifluoromethoxy)phenyl]sulfonyl]-1H-1,2,4-triazole-1-carboxamide]",Crop visual injury at 200 g/ha,[1]; [10],100%
same,Fresh Weight,[1]; [8],0.0 g
same,Crop visual injury at 200 g/ha,[2]; [10],40%
same,Fresh Weight,[3]; [9],3.1 g
same,% visual injury to corn at 200 g/ha,[3]; [11],100%
same,Fresh Weight,[4]; [9],86.0 g
same,Visual crop injury (%) at 200 g/ha,[4]; [11],14%
CCc1cnc(C2=NC(C)(C(C)C)C(=O)N2)c(C(=O)O)c1 (centres unmarked) [Imazethapyr],% Growth Reduction,"[6]; Rimsulfuron 0 + Imazethapyr 560 g ai/ha, Treatment # 4",−1%
same,% Growth Reduction,"[6]; Rimsulfuron 0 + Imazethapyr 1024 g ai/ha, Treatment # 5",10%
"COc1cc(OC)nc(NC(=O)NS(=O)(=O)c2ncccc2OCC(F)(F)F)n1 [Trifloxysulfuron Na^+, N-[[(4,6-dimethoxy-2-pyrimidinyl)amino]-carbonyl]-3-(2,2,2-trifluoroethoxy)-2-pyridinesulfonamide]",Crop visual injury at 200 g/ha,[1]; [10],100%
same,Fresh Weight,[1]; [8],0.0 g
same,Crop visual injury at 200 g/ha,[2]; [10],0%
same,Fresh Weight,[2]; [8],50.8 g
same,Fresh Weight,[3]; [9],1.0 g
same,% visual injury to corn at 200 g/ha,[3]; [11],100%
same,Fresh Weight,[4]; [9],86.6 g
same,Visual crop injury (%) at 200 g/ha,[4]; [11],29%
"CCOc1nc(F)cc2nc(S(=O)(=O)Nc3c(Cl)cccc3C(=O)OC)nn12 [Chloransulam-methyl, methyl 3-chloro-2-[[(5-ethoxy-7-fluoro-[1,2,4]triazolo [1,5-c]pyrimidin-2-yl)sulfonyl]amino]benzoate]",Crop visual injury at 200 g/ha,[1]; [10],3%
same,Fresh Weight,[1]; [8],5.5 g
same,Crop visual injury at 200 g/ha,[2]; [10],3%
same,Fresh Weight,[3]; [9],6.8 g
same,% visual injury to corn at 200 g/ha,[3]; [11],96%
same,Visual crop injury (%) at 200 g/ha,[4]; [11],3%
COC(=O)c1cccc(C)c1S(=O)(=O)NC(=O)Nc1nc(OCC(F)(F)F)nc(N(C)C)n1 [Triflusulfuron-methyl],Fresh Weight,[1]; [8],26.3 g
same,Fresh Weight,[2]; [8],53.5 g
same,% Visual Injury,[3]; [9],100%
same,Fresh Weight,[3]; [9],2.1 g
same,% Visual Injury,[4]; [9],8%
same,Fresh Weight,[4]; [9],110.9 g
"CCCOc1nn(C(=O)NS(=O)(=O)c2ccccc2C(=O)OC)c(=O)n1C [Propoxycarbazone Na^+, methyl 2-[[[(4,5-dihydro-4-methyl-5-oxo-3-propoxy-1H-1,2,4-triazol-1-yl)carbonyl]amino]sulfonyl]benzoate]",Crop visual injury at 200 g/ha,[1],100%
same,Fresh Weight,[1]; [8],0.6 g
same,Crop visual injury at 200 g/ha,[2],100%
same,Fresh Weight,[3]; [9],1.9 g
same,% visual injury to corn at 200 g/ha,[3]; [11],100%
same,Visual crop injury (%) at 200 g/ha,[4]; [11],9%
"CCOC(=O)c1ccccc1S(=O)(=O)NC(=O)Nc1nc(Cl)cc(OC)n1 [Chlorimuron-ethyl, ethyl 2-[[[[(4-chloro-6-methoxy-2-pyrimidinyl)amino]carbonyl]amino]sulfonyl]-benzoate]",damage from the treatment,GAT-HRA maize,no significant damage
same,damage from the treatment,control maize,severely damaged or killed
"COC(=O)c1ccc(I)cc1S(=O)(=O)NC(=O)Nc1nc(C)nc(OC)n1 [Iodosulfuron-methyl Na^+, methyl 4-iodo-2-[[[[(4-methoxy-6-methyl-1,3,5-triazin-2-yl)amino]carbonyl]amino]sulfonyl]benzoate]",Crop visual injury at 200 g/ha,[1]; [10],92%
same,Crop visual injury at 200 g/ha,[2]; [10],5%
same,Fresh Weight,[3]; [9],3.5 g
same,% visual injury to corn at 200 g/ha,[3]; [11],100%
same,Fresh Weight,[4]; [9],95.0 g
same,Visual crop injury (%) at 200 g/ha,[4]; [11],1%
"COC(=O)c1ccc(C(F)(F)F)nc1S(=O)(=O)NC(=O)Nc1nc(OC)cc(OC)n1 [Flupyrsulfuron-methyl Na^+, methyl 2-[[[[(4,6-dimethoxy-2-pyrimidinyl)amino]carbonyl]amino]sulfonyl]-6-(trifluoromethyl)-3-pyridinecarboxylate]",Crop visual injury at 200 g/ha,[1]; [10],87%
same,Crop visual injury at 200 g/ha,[2]; [10],90%
same,Fresh Weight,[3]; [9],5.2 g
same,% visual injury to corn at 200 g/ha,[3]; [11],95%
same,Visual crop injury (%) at 200 g/ha,[4]; [11],4%
COC(=O)c1ccccc1S(=O)(=O)NC(=O)Nc1nc(C)nc(OC)n1 [Metsulfuron-methyl (BRUSH-OFF ®)],Control (%),[7]; metsulfuron-methyl (BRUSH-OFF) 5 g/ha,100%
same,Control (%),[7]; metsulfuron-methyl (BRUSH-OFF) 10 g/ha,100%
CP(=O)(O)CCC(N)C(=O)O (centres unmarked) [Glufosinate ammonium],Fresh Weight,[3]; 1870 g/ha,2.4 g
same,% visual injury to corn at 1870 g/ha,[3]; [12],99%
same,Fresh Weight,[4]; 1870 g/ha,112.3 g
same,Visual crop injury (%) at 1870 g/ha,[4]; [12],1%
COc1cc(OC)nc(Sc2cccc(Cl)c2C(=O)[O-])n1.[Na+] [Pyrithiobac Na^+],Fresh Weight,[1]; [8],0.0 g
same,% Visual Injury,[3]; [9],100%
same,Fresh Weight,[3]; [9],2.8 g
same,% Visual Injury,[4]; [9],9%
O=C(O)CNCP(=O)(O)O [glyphosate (ROUNDUP ®)],Control (%),"[7]; glyphosate (ROUNDUP, 360 g a.i. L^−1) 0.5 L/ha",12%
